Source: PubChem BioAssay AID1963421 (Molecular Pharmacology Branch, DTP, NCI, 2024)

Test system: 519858-162-T-J1-PDC complex spheroid growth, % test/control
Assay: Anticancer human tumor 519858-162-T-J1-PDC patient-derived colon adenocarcinoma cell line growth inhibition [Asc]
Settings: for IC50: curve of first compound; for viability, T/C: stronger effect = lower value
Procedure: Multicellular complex tumor spheroid response to apoptosis pathway targeting inhibitors Alrizomadlin, Pelcitoclax, and Dasminapant in combination with a variety of drugs and investigational agents in selected tumor cell lines
The MDM2 inhibitor alrizomadlin, the Bcl-2/Bcl-xL inhibitor pelcitoclax, and the IAPs inhibitor dasminapant were evaluated both individually and in combination with standard of care and investigational anticancer small molecules within a complex spheroid model of solid tumors. . Complex spheroids include a stromal component modeled by human endothelial cells (HUVEC) and fibroblasts modeled by human mesenchymal stem cells (MSCs). The concentration ranges selected for each drug and investigational agent were based upon clinically achievable concentrations if the clinical Cmax of the agent was known.
Compounds. The drugs and investigational agents: alrizomadlin (APG-115; NSC831270), pelcitoclax (APG-1252; NSC835773), dasminapant (APG-1387;NSC834197), TAK-243 (NSC785004), copanlisib (NSC809693), olaparib (NSC753686), talazoparib (NSC767125), cobimetinib (NSC 768068), eltanexor (KPT-8602, NSC 794443), abemaciclib (NSC 768073), sotorasib (NSC818433), adagrasib (NSC 831453), MRTX-1133 (NSC 836407), Iadademestat (ORY1001, NSC 806812), and RMC-4630 (NSC839698), were obtained from the NCI Developmental Therapeutics Program Chemical Repository. The FDA-approved anticancer drug set is available from the Developmental Therapeutics Program at https://dtp.cancer.gov/organization/dscb/obtaining/available plates.htm. […] The stock solutions were prepared in dimethyl sulfoxide (DMSO, Sigma-Aldrich, St. Louis, MO, cat. D2650) at 800-fold the tested concentration and stored at -70 degrees C prior to their use. All drugs and investigational agents were tested over a range starting from a high concentration at or near the clinical Cmax and decreasing in half-log increments. If the clinical Cmax for an agent had not been determined, the highest concentration tested was 10 microM.
The patient-derived cancer (PDC) cell lines include five colon adenocarcinomas: 186277-243-T-J2-PDC, 616215-338-R-J1-PDC, 439559-082-T-J2-PDC, 463943-066-T-J2-PDC, and 519858-162-T-J1-PDC; three pancreatic carcinomas: 323965-272-R-J2-PDC, 521955-158-R6-J3-PDC, and 521955-158-R2-J5-PDC; two uterine sarcomas: 327498-152-R-J2-PDC and 993429-296-R-J1-PDC; two rhabdomyosarcomas: 755483-174-R-J1-PDC and 772245-204-R-J1-PDC; two soft tissue sarcomas: 126254-015-R-J1-PDC and 494315-158-R-J1-PDC; two malignant fibrous histiocytomas: 317291-083-R-J1-PDC and 596521-263-R-J1-PDC; two breast carcinomas: 171881-019-R-J1-PDC and 885512-296-R-J2-PDC; and one ovarian carcinoma: 6556581-035-R-J-PDC were obtained from the NCI PDMR, (https://pdmr.cancer.gov). The established cell lines HSSY-2 synovial sarcoma (RRID:CVCL 8719), SYO-1 synovial sarcoma (RRID:CVCL_7146), MPNST malignant peripheral neural sheath tumor were obtained from the Sloan Kettering Institute. The following established cell lines were purchased from the American Type Culture Collection (ATCC, Manassas, VA), Sor the received from the NCI repository:, PANC-1 pancreatic carcinoma (CRL-1469, RRID:CVCL_0480), OVCAR-5 ovarian carcinoma (RRID:CVCL_1628), OVCAR-8 ovarian carcinoma (RRID:CVCL_1629), , MCF-7 breast carcinoma (CRL-12584, RRID:CVCL_0031), MDA-MB-231 breast carcinoma (CRL-12532, RRID:CVCL_0062), NCI-H1876 small cell lung carcinoma (CRL-5902, RRID:CVCL_1503), NCI-H510A small cell lung carcinoma (HTB-184, RRID:CVCL_1565), NCI-H1417 (CRL-5869, RRID:CVCL_1469), and NCI-H196 small cell lung carcinoma (CRL-5823, RRID:CVCL_1509). Dr. Peter Houghton (Greehey Children's Cancer Research Institute, University of Texas Health Science Center, San Antonio, TX) provided Rh-18 rhabdomyosarcoma (RRID:CVCL_1659). Pooled donor human umbilical vein endothelial cells (HUVEC, Lonza, cat. CC-2519) and human mesenchymal stem cells (hMSC, Lonza, cat. PT-2501) were purchased from Lonza (Walkersville, MD).
Cell Culture. […]

[1] = second compound 0.00949 µM, first compound 0.00316 µM
[2] = second compound 0.00949 µM, first compound 0.01 µM
[3] = second compound 0.00949 µM, first compound 0.0316 µM
[4] = second compound 0.00949 µM, first compound 0.1 µM
[5] = second compound 0.00949 µM, first compound 0.316 µM
[6] = second compound 0.00949 µM, first compound 1 µM
[7] = second compound 0.03 µM, first compound 0.00316 µM
[8] = second compound 0.03 µM, first compound 0.01 µM
[9] = second compound 0.03 µM, first compound 0.0316 µM
[10] = second compound 0.03 µM, first compound 0.1 µM
[11] = second compound 0.03 µM, first compound 0.316 µM
[12] = second compound 0.03 µM, first compound 1 µM
[13] = second compound 0.0949 µM, first compound 0.00316 µM
[14] = second compound 0.0949 µM, first compound 0.01 µM
[15] = second compound 0.0949 µM, first compound 0.0316 µM
[16] = second compound 0.0949 µM, first compound 0.1 µM
[17] = second compound 0.0949 µM, first compound 0.316 µM
[18] = second compound 0.0949 µM, first compound 1 µM
[19] = second compound 0.3 µM, first compound 0.00316 µM
[20] = second compound 0.3 µM, first compound 0.01 µM
[21] = second compound 0.3 µM, first compound 0.0316 µM
[22] = second compound 0.3 µM, first compound 0.1 µM
[23] = second compound 0.3 µM, first compound 0.316 µM
[24] = second compound 0.3 µM, first compound 1 µM
[25] = second compound 0.949 µM, first compound 0.00316 µM
[26] = second compound 0.949 µM, first compound 0.01 µM
[27] = second compound 0.949 µM, first compound 0.0316 µM
[28] = second compound 0.949 µM, first compound 0.1 µM
[29] = second compound 0.949 µM, first compound 0.316 µM
[30] = second compound 0.949 µM, first compound 1 µM
[31] = second compound 3 µM, first compound 0.00316 µM
[32] = second compound 3 µM, first compound 0.01 µM
[33] = second compound 3 µM, first compound 0.0316 µM
[34] = second compound 3 µM, first compound 0.1 µM
[35] = second compound 3 µM, first compound 0.316 µM
[36] = second compound 3 µM, first compound 1 µM
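Note: seven day drug exposure begun three days after spheroid seeding.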
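Throughout, for viability, T/C: 100% = DMSO vehicle wells and lower values mean less viable spheroid.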

SMILES: CCN1CCN(Cc2ccc(Nc3ncc(F)c(-c4cc(F)c5nc(C)n(C(C)C)c5c4)n3)nc2)CC1 + CCN1C(C(=O)NC23CCC(C(=O)O)(CC2)CC3)C(c2cccc(Cl)c2F)C2(C(=O)Nc3cc(Cl)ccc32)C12CCCCC2
- IC50 (second compound 0.00949 µM): > 1000 nM
- IC50 (second compound 0.03 µM): > 1000 nM
- IC50 (second compound 0.0949 µM): > 1000 nM
- IC50 (second compound 0.3 µM): > 1000 nM
- IC50 (second compound 0.949 µM): > 1000 nM
- IC50 (second compound 3 µM): > 1000 nM
- viability, T/C [1]: 85.7%
- viability, T/C [2]: 89.3%
- viability, T/C [3]: 76.2%
- viability, T/C [4]: 88.8%
- viability, T/C [5]: 60.2%
- viability, T/C [6]: 71%
- viability, T/C [7]: 124%
- viability, T/C [8]: 84.4%
- viability, T/C [9]: 91.5%
- viability, T/C [10]: 105%
- viability, T/C [11]: 93.4%
- viability, T/C [12]: 76.9%
- viability, T/C [13]: 99.8%
- viability, T/C [14]: 95.7%
- viability, T/C [15]: 86.2%
- viability, T/C [16]: 81.7%
- viability, T/C [17]: 67.7%
- viability, T/C [18]: 58.8%
- viability, T/C [19]: 97.6%
- viability, T/C [20]: 83.5%
- viability, T/C [21]: 69.1%
- viability, T/C [22]: 61.9%
- viability, T/C [23]: 64.2%
- viability, T/C [24]: 104%
- viability, T/C [25]: 87.4%
- viability, T/C [26]: 72.6%
- viability, T/C [27]: 84.8%
- viability, T/C [28]: 80.9%
- viability, T/C [29]: 81.2%
- viability, T/C [30]: 63%
- viability, T/C [31]: 71.4%
- viability, T/C [32]: 69.9%
- viability, T/C [33]: 78.6%
- viability, T/C [34]: 89.2%
- viability, T/C [35]: 72.7%
- viability, T/C [36]: 66.4%

SMILES: O=C(c1ccc(F)c(F)c1Nc1ccc(I)cc1F)N1CC(O)([C@@H]2CCCCN2)C1 + CCN1C(C(=O)NC23CCC(C(=O)O)(CC2)CC3)C(c2cccc(Cl)c2F)C2(C(=O)Nc3cc(Cl)ccc32)C12CCCCC2
- IC50 (second compound 0.00949 µM): 213 nM
- IC50 (second compound 0.03 µM): 130 nM
- IC50 (second compound 0.0949 µM): 211 nM
- IC50 (second compound 0.3 µM): 250 nM
- IC50 (second compound 0.949 µM): 246 nM
- IC50 (second compound 3 µM): 167 nM
- viability, T/C [1]: 57.3%
- viability, T/C [2]: 86.8%
- viability, T/C [3]: 88.8%
- viability, T/C [4]: 116%
- viability, T/C [5]: 30.6%
- viability, T/C [6]: 19.1%
- viability, T/C [7]: 126%
- viability, T/C [8]: 91.1%
- viability, T/C [9]: 93.1%
- viability, T/C [10]: 56%
- viability, T/C [11]: 42.5%
- viability, T/C [12]: 17.6%
- viability, T/C [13]: 105%
- viability, T/C [14]: 115%
- viability, T/C [15]: 64.8%
- viability, T/C [16]: 79.9%
- viability, T/C [17]: 36.1%
- viability, T/C [18]: 15.5%
- viability, T/C [19]: 90.5%
- viability, T/C [20]: 90%
- viability, T/C [21]: 66.1%
- viability, T/C [22]: 91.8%
- viability, T/C [23]: 41.1%
- viability, T/C [24]: 17.2%
- viability, T/C [25]: 81%
- viability, T/C [26]: 64%
- viability, T/C [27]: 73%
- viability, T/C [28]: 70.1%
- viability, T/C [29]: 44.3%
- viability, T/C [30]: 21.9%
- viability, T/C [31]: 68.4%
- viability, T/C [32]: 104%
- viability, T/C [33]: 46.3%
- viability, T/C [34]: 65.7%
- viability, T/C [35]: 39.5%
- viability, T/C [36]: 14.3%
